According to ChEMBL document CHEMBL3785021, “Isatin analogs as novel inhibitors of Candida spp. β-carbonic anhydrase enzymes” (Bioorg Med Chem, 2016):

How the values were obtained:
[1] = target: Carbonic anhydrase 2 (Homo sapiens, UniProt P00918); assay: Inhibition of recombinant human carbonic anhydrase 2 expressed in Escherichia coli preincubated for 15 mins by stopped-flow CO2 hydration assay
[2] = target: T1, Carbonic anhydrase (Candida glabrata CBS 138, UniProt Q6FTL6); assay: Inhibition of recombinant Candida glabrata beta carbonic anhydrase NCE103 expressed in Escherichia coli preincubated for 15 mins by stopped-flow CO2 hydration assay; parameters: species or system Nakaseomyces glabratus
T1 sequence (Q6FTL6 whole entry): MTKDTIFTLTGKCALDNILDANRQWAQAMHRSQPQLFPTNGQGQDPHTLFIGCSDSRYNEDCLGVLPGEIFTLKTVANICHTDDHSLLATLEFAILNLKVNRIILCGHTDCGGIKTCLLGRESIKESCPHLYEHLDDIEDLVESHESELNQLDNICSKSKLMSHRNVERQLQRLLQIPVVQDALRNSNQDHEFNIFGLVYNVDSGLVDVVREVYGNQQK

[3] = target: T2, Carbonic anhydrase (Candida albicans (strain SC5314 / ATCC MYA-2876) (Yeast), UniProt Q5AJ71); assay: Inhibition of recombinant Candida albicans beta carbonic anhydrase NCE103 expressed in Escherichia coli preincubated for 15 mins by stopped-flow CO2 hydration assay
T2 sequence (Q5AJ71 whole entry): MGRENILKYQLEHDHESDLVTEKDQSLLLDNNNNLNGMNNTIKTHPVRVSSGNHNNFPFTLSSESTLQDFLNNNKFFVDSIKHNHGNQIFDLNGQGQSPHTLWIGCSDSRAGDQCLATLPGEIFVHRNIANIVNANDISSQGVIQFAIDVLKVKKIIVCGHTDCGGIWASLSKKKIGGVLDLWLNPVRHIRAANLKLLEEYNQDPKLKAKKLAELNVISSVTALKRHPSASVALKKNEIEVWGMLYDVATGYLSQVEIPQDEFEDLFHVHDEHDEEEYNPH

[4] = target: Carbonic anhydrase 1 (Homo sapiens, UniProt P00915); assay: Inhibition of recombinant human carbonic anhydrase 1 expressed in Escherichia coli preincubated for 15 mins by stopped-flow CO2 hydration assay
Sequence of Carbonic anhydrase 1 (P00915 whole entry): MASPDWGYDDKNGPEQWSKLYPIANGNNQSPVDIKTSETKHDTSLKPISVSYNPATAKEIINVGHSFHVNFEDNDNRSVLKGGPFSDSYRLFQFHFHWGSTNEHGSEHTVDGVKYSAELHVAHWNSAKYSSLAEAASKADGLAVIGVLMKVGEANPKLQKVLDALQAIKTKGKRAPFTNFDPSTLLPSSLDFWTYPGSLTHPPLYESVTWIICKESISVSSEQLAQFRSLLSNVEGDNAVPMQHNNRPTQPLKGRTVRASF

Compound	Ki [1] [nM]	Ki [2] [nM]	Ki [3] [nM]	Ki [4] [nM]
NS(=O)(=O)c1ccc(N=C2C(=O)Nc3ccccc32)cc1	523	48.4	86.5	422
Cc1ccc2c(c1)/C(=N/c1cccc(S(N)(=O)=O)c1)C(=O)N2	565	45.9	157	
NS(=O)(=O)c1ccc(/N=C2\C(=O)Nc3ccc([N+](=O)[O-])cc32)cc1		22.8	34.1	
NS(=O)(=O)c1ccccc1/N=C1\C(=O)Nc2ccccc21		66.5	136	
CN1C(=O)/C(=N\c2ccc(S(N)(=O)=O)cc2)c2ccccc21		39.7	75.9	
CN1C(=O)/C(=N\c2ccc(S(N)(=O)=O)cc2)c2cc([N+](=O)[O-])ccc21		16.3	21.7	
NS(=O)(=O)c1cccc(/N=C2\C(=O)Nc3ccccc32)c1		85.1	98.1	
NS(=O)(=O)c1cccc(/N=C2\C(=O)Nc3ccc(F)cc32)c1		45.1	61.3	
Cc1ccc2c(c1)/C(=N/c1ccc(S(N)(=O)=O)cc1)C(=O)N2C		35.3	84.1	
Cc1ccc2c(c1)/C(=N/c1ccccc1S(N)(=O)=O)C(=O)N2		62.3	139	
CN1C(=O)/C(=N\c2ccc(S(N)(=O)=O)cc2)c2cc(Cl)ccc21		36.5	178	
NS(=O)(=O)c1cccc(/N=C2\C(=O)Nc3ccc([N+](=O)[O-])cc32)c1		23.1	35.7	
CN1C(=O)/C(=N\c2ccc(S(N)(=O)=O)cc2)c2cc(Br)ccc21		37.1	156	
NS(=O)(=O)c1cccc(/N=C2\C(=O)Nc3ccc(OC(F)(F)F)cc32)c1		53.5	88	
NS(=O)(=O)c1ccc(/N=C2\C(=O)Nc3ccc(F)cc32)cc1		21.6	85.2	
NS(=O)(=O)c1ccccc1/N=C1\C(=O)Nc2ccc(Cl)cc21		58.9	65.7	
CN1C(=O)/C(=N\c2ccc(S(N)(=O)=O)cc2)c2cc(F)ccc21		32.4	79.3	
NS(=O)(=O)c1ccccc1/N=C1\C(=O)Nc2ccc(OC(F)(F)F)cc21		154	295	
Cc1ccc2c(c1)/C(=N/c1ccc(S(N)(=O)=O)cc1)C(=O)N2		29.7	128	
NS(=O)(=O)c1ccc(/N=C2\C(=O)Nc3ccc(OC(F)(F)F)cc32)cc1		45.1	53.6	
NS(=O)(=O)c1ccc(/N=C2\C(=O)Nc3ccc(Cl)cc32)cc1		38.2	83.3	
NS(=O)(=O)c1ccccc1/N=C1\C(=O)Nc2ccc(F)cc21		55.4	91.5	
NS(=O)(=O)c1cccc(/N=C2\C(=O)Nc3ccc(Cl)cc32)c1		50.1	54.8	
